US7358278B2, “Cellular phosphorylation potential enhancing compositions preparation and use thereof” (priority 1994, dated 2008)
Marks after values point to notes of the source that are not given here.

Key:
[1] = tested on: rat cerebral cortical astrocytes; type: cell-based; settings: FIG. 11
Experimental: Astrocytes were treated with increasing amounts of the ER calcium pump inhibitor thapsigargin for 24 hrs in either Krebs buffer or MEM. Cell viability was determined using the MTT assay.
FIG. 10. Exogenous pyruvate provides protection to astrocytes from calcium overload in Krebs Buffer.
For these experiments astrocytes were cultured in either MEM or in Krebs alone or in Krebs with different aminoacid additions grouped as in FIG. 8. Aminoacids were used at 1 mM each. Following 30 min incubation with aminoacids, 15 μM thapsigargin was added to the cultures and the astrocytes cultured for another 24 hours in the presence or absence of 10 mM cinnamate, at which point cell viability was determined using the MTT assay. Cell viability is expressed as percent of that seen with MEM without thapsigargin addition. At the 15 μM thapsigargin dose, about 80% viability is seen in MEM and this is reduced to 20% by the addition of pyruvate. […]
The combination of pyruvate, nicotinamide, and creatine has synergistic benefits for cellular energy metabolism and is also cytoprotective. […] Since we had shown that pyruvate protects neurons from calcium overload induced by thapsigargin toxicity, we first determined whether endogenously produced or exogenously supplied pyruvate could protect astrocytes from calcium overload induced by thapsigargin as shown previously for GT1-7 neurons. […]

rat cortical neurons = test: Glutamate-induced delayed toxicity, neuroprotection, MTT assay; settings: FIG. 5b
Experimental: Cell death (glutamate toxicity) was measured using the MTT assay.
The glutamate exposure involved treatment wit 100 micromoolar glutamate for 30 min followed by its removal. […] All data are means +1-SEM from at least three different experiments.
To study glutamate neurotoxicity, we utilized primary cultures of rat cortical neurons and used a glutamate pulse model which produces delayed neuronal death in 24 hrs. All studies were performed in Locke's medium prepared in our laboratory to avoid contribution from the vitamins and additives typically found in many commercial media.
To determine whether the protective effects of pyruvate against glutamate toxicity were due to its effect on cell metabolism, we utilized 4-hydroxycinnamate, a compound that blocks the transporter by which pyruvate enters mitochondria. While pyruvate can exert its antioxidant effects in any compartment, its utilization in energy metabolism requires its entry into mitochondria.

GT1-7 cells = test: Thapsigargin (calcium overload) toxicity, neuroprotection, MTT dye reduction assay; settings: 20 micromolar thapsigargin, FIG. 4B
Experimental: GT1-7 cell were subjected to treatments and assessed for nutrient neuroprotection as described in the text. All data are means +/− SEM from at least three different experiments.
To study calcium overload toxicity, we treated cells with thapsigargin, an agent that blocks the endoplastic reticulum calcium pump and markedly elevates cytoplasmic calcium levels. […] All studies were performed in Locke's medium prepared in our laboratory to avoid contribution from the vitamins and additives typically found in many commercial media. After determining the toxin treatment dose needed to produce complete toxicity, we then treated the cells dose-dependently with pyruvate, nicotinamide (nicotinamide) and creatine, either alone or in combination along with the LD95 dose of the toxins. […] For the combination experiments, all three agents are added together and the x-axis indicates the concentration of each agent in the combination.

GT1-7 neurons [2] = test: Whole cell NADH levels by NADH fluorescence in suspended cells; type: cell-based, rat; settings: 1 mM each, 1 hour incubation, Locke's media; * significant vs Locke's medium alone P<0.05
Experimental: (§1) While each of these agents may have additional neuroprotective properties outside of their role in energy metabolism, our major premise is that this combination will provide neuroprotection through enhancement of brain energy levels. To assess this we monitored three different bioenergetic parameters: Whole cell NADH levels, cellular ATP levels and cellular phosphocreatine levels. GT1-7 cells or cross-chopped rat cerebral cortical slices were equilibrated in oxygenated Locke's media for 1 hour. Pyruvate, nicotinamide, or creatine were than added alone or in combination at 1 mM each. Analytes were measured after another hour of incubation. NADH was measured using its specific fluorescence properties in suspended cells and the effect of each nutrient alone and in combination on GT1-7 neuronal NADH levels is shown in table 2a. Pyruvate would be expected to raise mitochondrial NADH levels through its participation in the Krebs cycle and it indeed appears to account for all of this effect in the combination. ATP and phosphocreatine were measured via a chemiluminescent assay utilizing firefly luciferase. In viable cells, phosphocretine levels most adequately reflect cellular energy supply since cells readily convert any excess ATP into phosphocreatine.

GT1-7 neurons [3] = test: Cellular ATP and phosphocreatine levels, chemiluminescent firefly luciferase assay; type: cell-based, rat; settings: 1 mM each, 1 hour incubation; for ATP (% control) / CP (% control): Locke's media; for CP (% control): phosphocreatine
Experimental: as §1

[4] = tested on: rat cerebral cortical slices; test: ATP and phosphocreatine levels in cross-chopped cerebral cortical slices, firefly luciferase assay; type: cell-based; settings: 1 mM each
Experimental: as §1, with “Analytes were measured after another hour of incubation.” left out, “phosphocreatine. […] The response with the combination was larger and was maintained after 6 hours of continued incubation.” for “phosphocreatine.”

Row | SMILES | effect of cinnamate on susceptibility of MEM cultured astrocytes to thapsigargin (in words) [1] | effect on glutamate toxicity alone (in words) (rat cortical neurons) | effect on the protection by pyruvate (in words) (rat cortical neurons) | protection against calcium overload (in words) (GT1-7 cells) | NADH fluorescence (GT1-7 neurons [2]) | CP/ATP Ratio (GT1-7 neurons [3]) | ATP (% control) (GT1-7 neurons [3]) | CP (% control) (GT1-7 neurons [3]) | ATP % ctr ([4]; 1 h) | CP % ctr ([4]; 1 h) | CP/ATP Ratio ([4]; 1 h) | ATP % ctr ([4]; 6 h) | CP % ctr ([4]; 6 h) | CP/ATP Ratio ([4]; 6 h)
1 | O=C(O)C=Cc1ccc(O)cc1 [4-hydroxycinnamate] | more susceptible to thapsigargin toxicity | no significant effect on glutamate toxicity alone | prevents the protective effects of pyruvate |  |  |  |  |  |  |  |  |  |  | 
2 | CN(CC(=O)O)C(=N)N [Creatine, creatine] |  |  |  | nearly complete dose dependent protection | 99.3 ± 2.3 | 115.2 | 42 + 14.2* % control | 3314.3 + 920* % control |  |  |  |  |  | 
3 | NC(=O)c1cccnc1 [Nicotinamide, nicotinamide] |  |  |  | nearly complete dose dependent protection | 98.8 ± 2.2 | 4.3 | 48.6 ± 23.4 % control | 133.1 + 25 % control |  |  |  |  |  | 
4 | CC(=O)C(=O)O [Pyruvate, pyruvate] |  |  |  |  | 134.64 ± 9.9* | 6 | 103.5 ± 17.7 % control | 551.7 ± 193.7 % control | 77.7 % ctr | 233.6 % ctr | 3.1 | 143.6 % ctr | 150.6 % ctr | 1
